Data reported in patent US7642367B2, “Diamino-functional chalcones” (Lica Pharmaceuticals A/S, priority 2002, dated 2010).
Values after ≈ are worked out from the molar mass of the structure shown. Like-named read-outs stand apart in the source and are kept apart here.

How the values were obtained:
[1] = Determination of metabolic stability (liver microsomes); format: in vitro ADME, Wistar rat; conditions: for Metabolic turn-over in vitro: rat liver microsomes, 20 μM, 15 min at 37° C.
Description: incubations were performed with Wistar rat liver microsomes (0.25 mg/ml) in 2% sodium bicarbonate solution. NADP (0.13 mg/ml), glucose-6-phosphate (0.63 mg/ml) and glucose-6-phosophate dehydrogenase (0.38 units/ml) were used as NADPH generation system and UDPGA (0.48 mg/ml) was added to include the phase II reaction, glucuronic acid conjugation, in the assay. After 5 minutes of pre-incubation the reaction was started by addition of the test article to give a final concentration of 20 μM. Samples were incubated for 15 min at 37° C. and the reactions were terminated by addition of equal volumes of acetonitrile. Blank incubations were performed at the same concentration but without addition of microsomes. Both blank and microsome-containing samples were made in replicats of three. Prior to analysis samples were centrifuged for 10 min. at 3500 rpm, HPLC system:
Initial conditions were 40% mobile phase A (acetonitrile) and 60% mobile phase B (10 mM ammonium acetate pH 9.5). During the first 20 minutes, the mobile phase was changed via a linear gradient to 90% A and 10% B. This was followed by a 5 minutes linear gradient to initial conditions, which were maintained for 5 min. The flow rate was 0.20 ml/min and injection volume 10 μl.

[2] = tested on: Staphylococcus aureus ATCC29213; assay: MIC determination in broth microdilution assay; conditions: A: Staphylococcus aureus ATCC29213; NA: no activity
[3] = tested on: Staphylococcus aureus ATCC33591 (resistant to methicillin); assay: MIC determination in broth microdilution assay; conditions: B: Staphylococcus aureus ATCC33591 (resistant to methicillin); NA: no activity
[4] = tested on: Staphylococcus intermedius #2357 (clinical isolate); assay: MIC determination in broth microdilution assay; conditions: C: Staphylococcus intermedius #2357; NA: no activity
[5] = tested on: Enterococcus faecalis ATCC29212; assay: MIC determination in broth microdilution assay; conditions: D: Enterococcus faecalis ATCC29212; NA: no activity
[6] = tested on: Enterococcus faecium #17501 (vancomycin-resistant clinical isolate); assay: MIC determination in broth microdilution assay; conditions: E: Enterococcus faecium #17501 (vancomycin-resistant); NA: no activity
[7] = tested on: Streptococcus pneumoniae #998 (clinical isolate); assay: MIC determination in broth microdilution assay; conditions: F: Streptococcus pneumoniae #998; NA: no activity
[8] = tested on: Eschericia coli ATCC25922; assay: MIC determination in broth microdilution assay; conditions: G: Eschericia coli ATCC25922; NA: no activity
Eschericia coli ESS = assay: MIC determination in broth microdilution assay; conditions: H: Eschericia coli ESS; NA: no activity
non-fastidious bacteria = assay: Activity against non-fastidious bacteria (panel); conditions: pathogenic Gram-positive bacteria
[9] = tested on: Plasmodium falciparum 3D7; assay: Plasmodium falciparum assay (3H-phenylalanine labelling); format: cell-based
[10] = Determination of solubility in phosphate buffer pH 7.4; format: physicochemical; conditions: aqueous buffer at pH 7.4
Description: Solubility of the compounds was determined by preparing a saturated solution of compound in 0.3 M phosphate buffer (pH 7.4±0.3) in a brown glass tube. The suspensions were rotated slowly for 24 hours. Aliquots were centrifuged for 10 minutes at 14.000 rpm and supernatants were diluted in 40% (v/v) acetonitrile in water prior to HPLC analysis. Concentrations of analytes were quantified against a standard curve and used as term of solubility.
The HPLC-UV method used for the assessment of solubility is the same as used in the in vitro metabolism assay.

Plasmodium berghei K173 [11] = assay: Multiple intra venous administration in Plasmodium berghei K173 infected mice; format: in vivo; conditions: Plasmodium berghei K173 infected NMRI female mice, multiple intra venous administrations, FIG. 10
Description: The doses stated were administered intra venously as solutions in a suitable vehicle.

[12] = tested on: Plasmodium falciparum DD2 (Cq-res); conditions: read-out: Plasmodium falciparum IC50
[13] = tested on: Plasmodium falciparum 7G8 (Cq-res); conditions: read-out: Plasmodium falciparum IC50
[14] = tested on: Plasmodium falciparum K1 (Cq-res); conditions: read-out: Plasmodium falciparum IC50
[15] = mice
[16] = mice; remark: listed apart in the source
Plasmodium berghei K173 [17] = conditions: Plasmodium berghei K173 infected NMRI female mice, multiple oral administrations, FIG. 8

In the case of `Cc1cc(C)cc(-c2ccc(N3CCN(C)CC3)c(/C=C/C(=O)c3cccc(NCCN(C)C)c3)c2)c1` [B101, (E)-1-[3-(2-Dimethylamino-ethylamino)-phenyl]-3-[3′,5′-dimethyl-4-(4-methyl-piperazin-1-yl)-biphenyl-3-yl]-propenone], the “Metabolic turn-over in vitro” value [1] is reported as 3%, the MIC [2] is reported as 4.7 µM (≈ 2.33 µg/mL) and the MIC [3] is reported as 4.7 µM (≈ 2.33 µg/mL). It also gave an MIC [4] of 9.4 µM (≈ 4.67 µg/mL), an MIC [5] of 4.7 µM (≈ 2.33 µg/mL) and an MIC [6] of 4.7 µM (≈ 2.33 µg/mL). The MIC [7] was 4.7 µM (≈ 2.33 µg/mL), the MIC [8] was 9.4 µM (≈ 4.67 µg/mL) and the MIC (Eschericia coli ESS) was 4.7 µM (≈ 2.33 µg/mL). For the same compound, the “activity against Gram-positive non-fastidious bacteria” value (non-fastidious bacteria) was “increased potency”.

For `CN(C)CCN(C)c1cccc(/C=C/C(=O)c2ccccc2CN(C)C)c1` [B074, (E)-3-{3-[(2-Dimethylamino-ethyl)-methyl-amino]-phenyl}-1-(2-dimethylaminomethyl-phenyl)-propenone], the IC50 ([9]; Plasmodium falciparum 3D7 (Table 2), read-out: IC50) was 0.6 µM, the “Metabolic turn-over in vitro” value [1] was 0% and the Solubility [10] was 15400 µg/mL (≈ 42.1 mM). The effect on parasitaemia (Plasmodium berghei K173 [11]) was “significant decrease in the parasitaemia”.

With `COc1ccc(C(=O)/C=C/c2cc(-c3ccccc3)cc(N3CCN(C)CC3)c2)c(CN(C)C)c1` [B111, (E)-1-(2-Dimethylaminomethyl-4-methoxy-phenyl)-3-[5-(4-methyl-piperazin-1-yl)-biphenyl-3-yl]-propenone] the IC50 ([9]; 3D7 (Cq-sen) (Table 3), read-out: Plasmodium falciparum IC50) was 1.6 µM, the “Metabolic turn-over in vitro” value [1] was 4% and the Solubility [10] was 3100 µg/mL (≈ 6.6 mM). The IC50 [12] was 1 µM, the IC50 [13] was 1.3 µM and the IC50 [14] was 1 µM.

Compound `COc1ccccc1-c1ccc(/C=C/C(=O)c2ccc(O)c(CN(C)C)c2)c(N2CCN(C)CC2)c1` [B098, (E)-1-(3-Dimethylaminomethyl-4-hydroxy-phenyl)-3-[2′-methoxy-3-(4-methyl-piperazin-1-yl)-biphenyl-4-yl]-propenone] has a bioavailability [15] of 50%.

With `Cc1ccccc1-c1cc(/C=C/C(=O)c2ccccc2CN(C)C)cc(N(C)CCN(C)C)c1` [B119, (E)-3-{5-[(2-Dimethylamino-ethyl)-methyl-amino]-2′-methyl-biphenyl-3-yl}-1-(2-dimethylaminomethyl-phenyl)-propenone] the “metabolism” value ([1]; rat) was 8.6%, the “Metabolic turn-over in vitro” value [1] was 9% and the “metabolism” value [16] was 75%. The “effect on infection (parasitaemia)” value (Plasmodium berghei K173 [17]) was “inhibit the development of the infection”.
